Assay results from patent EP0907731B1, “METABOTROPIC GABA(B) RECEPTORS, RECEPTOR-SPECIFIC LIGANDS AND THEIR USES” (Novartis AG, priority 1996, dated 1997).
“Also recorded” adds a separate entry of the source. Like-named read-outs stand apart in the source and are kept apart here.

Legend:
GABAB receptors = conditions: inhibition of [125I]CGP 64213 binding, native receptors; read-out: Rat cerebral cortex IC50
Method: The animals are decapitated, the brains removed, the cerebral cortices dissected and homogenised in 10 volumes of ice-cold 0.32 M sucrose, containing MgCl2 (1 mM) and K2HPO4 (1 mM), with a glass/Teflon homogeniser. The membranes are centrifuged at 1000 x g for 15 min, the pellet resuspended and the centrifugation repeated. The supernatants are pooled and centrifuged at 20000 x g for 15 min. The pellet is osmotically shocked by resuspension in 10 volumes H2O and kept on ice for 30 min. […] The membranes are thawed at room temperature, washed three times with Krebs-Henseleit buffer by centrifugation at 20000 x g for 15 min, left overnight at 4°C and washed again three times. The final pellet is resuspended with a glass/Teflon homogenise in 20 ml of the same buffer. 2 ml aliquots are frozen and stored in liquid nitrogen. Just before use membranes are thawed quickly in a water bath at 37°C and again washed by centrifugation at 20000 x g for 15 min with the same buffer three times.
The incubation is terminated by filtration through GF/B Whatman glass fibre filters.

[1] = biological target: recombinant GABABR1a receptors; conditions: read-out: COS 1 cells IC50, inhibition of [125I]CGP 64213 binding
Method: In order to isolate membranes containing the cloned GABAB receptor, culture dishes containing GABAB receptor-expressing COS cells are washed twice with Krebs-Henseleit-Tris buffer. Afterwards the cells are scraped off the dishes, homogenised in a glass-glass homogeniser and centrifuged for 30 min at 4°C at 40'000 g. The homogenisation and centrifugation step is repeated once. The pellet is resuspended in buffer and stored in liquid nitrogen until further analysis.

native GABAB receptors = test: Photoaffinity labelling of membranes with [125I]CGP 71872 in the presence of competitor substances; type: binding, rat
Method: The incubation is terminated by centrifugation at 20 000 x g for 10 min at 4°C. This step removed free unbound photoaffinity label. […] The suspension is centrifuged at 20 000 x g for 10 min and resuspended at a concentration of 8mg/ml protein in buffer. […] The labelled membranes could be stored at -80°C.
Furthermore, native GABAB receptors are photoaffinity-labelled in the presence of various competitor substances indicated in Figure 4b.

GABABR1a = biological target: T1, GABABR1a (Rattus norvegicus, UniProt Q9Z0U4); test: Forskolin-stimulated cAMP accumulation in HEK293 cells stably expressing GABABR1a; type: cell-based; conditions: 10 µM antagonist, 300 µM L-baclofen
T1 construct: either the full-length cDNA clones disclosed herein or fragments thereof can be used as probes; expressed in transfected cells
From the text: GABAB receptors are described to inhibit adenylate cyclase activity, stimulate phospholipase A2, activate K^+-channels, inactivate voltage-dependent Ca^2+-channels and to modulate inositol phospholipid hydrolysis. As GABABR1a and -b have identical sequence in all domains predicted to be intracellular they are expected to be able to couple to the same effector systems. […] We chose concentrations of forskolin and L-baclofen that should produce a maximal effect.

[2] = test system: non-transfected HEK293 cells; test: Forskolin-stimulated cAMP formation in non-transfected HEK293 cells (control); type: cell-based; conditions: untransfected HEK293 cells
Method: • Figure 1 a depicts the expression of the recombinant GABABR1a receptor in COS1 cells. […]. Autoradiography of a 6% SDS gel with 25µg protein loaded per lane is shown. […]. The apparent molecular weight of native and recombinant GABAB receptors are estimated from gel mobilities relative to those of SDS-PAGE standards (BioRad). […]. Cell membranes of the tissues indicated are photoaffinity-labelled with [[…] and subjected to SDS-PAGE and autoradiography. a, b, Selectivity of the photoaffinity ligand [[…]. a, Differential distribution of GABAB receptor variants of 130K and 100K in tissues of the nervous system. […]. Incubation of membrane extracts with the photoaffinity ligand is carried out in the presence of competitor substances at the concentrations indicated, c, GABAB receptors are N-glycosylated. Photoaffinity-labelled rat cortex cell membranes are incubated with 0.4 units N-glycosidase F or 0.6 milliunits O-glycosidase (Boehringer Mannheim). d, Photolabelling of GABAB receptors from different species. […]
GABAB receptors are described to inhibit adenylate cyclase activity, stimulate phospholipase A2, activate K^+-channels, inactivate voltage-dependent Ca^2+-channels and to modulate inositol phospholipid hydrolysis. […] The ability of GABABR1a stably expressed in HEK293 cells to reduce forskolin-stimulated CAMP accumulation is analysed (Fig. 5). […]

[3] = test system: rat cortical slice preparations; conditions: cited from earlier work

T1 sequence (Q9Z0U4 20-960): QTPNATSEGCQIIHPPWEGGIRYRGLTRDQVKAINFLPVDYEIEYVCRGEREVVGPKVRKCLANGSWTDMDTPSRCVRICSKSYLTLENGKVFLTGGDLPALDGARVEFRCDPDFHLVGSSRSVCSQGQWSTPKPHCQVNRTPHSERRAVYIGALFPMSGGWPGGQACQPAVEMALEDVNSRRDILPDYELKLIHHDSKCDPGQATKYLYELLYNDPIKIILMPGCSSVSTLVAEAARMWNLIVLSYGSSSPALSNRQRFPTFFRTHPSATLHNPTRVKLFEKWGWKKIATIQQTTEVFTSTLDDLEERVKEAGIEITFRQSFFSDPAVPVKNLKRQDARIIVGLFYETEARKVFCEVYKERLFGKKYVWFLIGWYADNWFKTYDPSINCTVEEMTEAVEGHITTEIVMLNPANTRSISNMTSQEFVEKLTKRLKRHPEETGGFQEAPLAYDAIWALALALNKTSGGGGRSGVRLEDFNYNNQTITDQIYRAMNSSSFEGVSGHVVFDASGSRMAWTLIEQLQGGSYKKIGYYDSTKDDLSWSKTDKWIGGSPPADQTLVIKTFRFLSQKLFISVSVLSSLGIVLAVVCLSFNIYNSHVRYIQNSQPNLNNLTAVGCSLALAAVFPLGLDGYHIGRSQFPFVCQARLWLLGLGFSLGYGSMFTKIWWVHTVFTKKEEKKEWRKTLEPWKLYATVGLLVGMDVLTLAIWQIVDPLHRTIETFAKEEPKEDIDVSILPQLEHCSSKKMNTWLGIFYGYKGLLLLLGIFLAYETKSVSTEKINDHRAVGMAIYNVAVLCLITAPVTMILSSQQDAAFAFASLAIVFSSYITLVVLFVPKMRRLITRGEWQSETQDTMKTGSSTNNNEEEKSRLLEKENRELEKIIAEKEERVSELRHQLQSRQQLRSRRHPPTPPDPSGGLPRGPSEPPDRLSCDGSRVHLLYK

## NCCCP(=O)(O)C(F)F [CGP 47656]
GABAB receptors
  IC50: 0.28 µM
[1]
  IC50: 12.3 µM

## C[C@H](NC[C@H](O)CP(=O)(O)CC1CCCCC1)c1ccc(Cl)c(Cl)c1 [CGP 54626A]
Native GABAB receptors
  [125I]CGP 71872 labelling in the presence of excess unlabelled antagonist: no radioactivity is bound to the membranes
Native GABAB receptors; listed as CGP54626A
  [125I]CGP 71872 labelling in the presence of excess unlabelled antagonist: inhibited
GABABR1a
  effect on the L-baclofen inhibition of forskolin-stimulated cAMP accumulation: antagonised

## NC[C@H](CC(=O)O)c1ccc(Cl)cc1 [L-baclofen]
[2]
  inhibition of forskolin-stimulated cAMP formation: No L-baclofen response; also recorded: does not inhibit
[3]
  reduction of forskolin-stimulated cAMP accumulation: about 40%
